Measurements taken from patent publication US20180201594A1, “Compound pac-1 or salt thereof and pharmaceutical composition comprising same” (priority 2015, published 2018).

Legend:
[1] = In vivo pharmacokinetic comparison in rats
Description: Twelve male Wistar rats were randomly divided into ZYS-1 group and PAC-1 group. These rats were fasted for 12 hours before administration, and fed water freely. After ZYS-1 and PAC-1 needle crystal were given at the dose of 60 mg/Kg, 0.5 mL orbital blood was collected at 0, 5, 20, 30, 45, 60, 120, 180, 240, 360, 480, 720 mins, centrifuged at 5000 r/min for 5 min. 200 μL plasma was taken. The plasma was added 3 mL acetone and vortexed for 1 min. After centrifuging at 15000 r/min for 5 min, the supernatant was collected and dried under nitrogen at 37° C., to which 200 μL acetonitrile was added to be reconstituted. After sonication for 10 min, the mixture was vortexed for 1 min, and filtered through 0.45 microporous filter membrane. The filtrate was tested by HPLC, and the plasma concentration at each time point was calculated.

in vivo = type: in vivo; details: both sexes, ICR, mouse, in vivo, po
Description: (§1) Experimental material: ZYS-1
(§2) Experimental animals and feeding conditions: ICR mice, half male and half female. Body weight 20±2 g, provided by Beijing Weitonglihua Experimental Animal Technology Co., Ltd., SPF grade feeding, certificate: SCXK (Beijing) 2006-0009. Particulate feed for mouse breeding was provided by Beijing Ke'ao Xieli Feed Co., Ltd. Animals were housed in barrier-level (Grade 2) animal lab in Beijing Anzhen Hospital, fluorescent lighting, 12 h light and dark cycle, room temperature 22˜24 ? , humidity 40-47%, air supply 10-12 times/h, Laboratory license number: SYXK (Beijing) 2005-0028. Mice were housed in clear plastic boxes with 5 per cage separated by gender.
(§3) Preparation method of test drug: A white powder of ZYS-1 was placed in a mortar to be finely ground. The drug was accurately weighed before use, which was formulated with 0.5% CMC-Na to reach the desired concentration.
(§4) Animals grouping: After fasting (except for water) for 11 h, according to body weight, animals were randomly divided into groups of 10 with 5 males and 5 females. There were 8 groups in total. […]. One-time intragastric administration was used in the experiment. The negative control group was orally administered an equal volume of 0.5% CMC-Na. The animals started feeding at 3 hours after administration.
(§5) Observed indicators: immediately after administration, the observation of the responses of the animals to drugs (such as: general performance, respiration, activity, with or without convulsions, righting reflex, pain reflex, response to external stimuli and other indicators) was started. After observing and recording the symptom of toxic reaction, the time and duration of toxicity, recovery time, and the time of animal death. After the animal was dead, it was immediately grossly dissected, visually observing each of the main organs (heart, liver, spleen, lung and kidney, stomach) to see if there was congestion, increased volume, hardens, discoloration. The survival animals were observed and recorded day by day whether there was delayed toxicity reaction and delayed death within 7 days, and weigh and feed the animals once every 2 days. After finishing the 7 day's observation, the survival animals were grossly dissected and the situations of the main organs were observed. LD50 was calculated according to the number of animal deaths in each group.

ICR mice = test: in vivo; type: in vivo
Description: as §1, §2, §3, §4, §5

[2] = tested on: HGC-27, K562/A02, A549, HT-1080 cells; test: Tumor cell proliferation (MTT or CCK-8); type: cell-based, human; details: 48 h, FIG. 5-8
Source text: Experimental cells: gastric cancer cell line HGC-27, non-small cell lung cancer A549, human chronic myeloid leukemia cells doxorubicin resistant strains K562/A02, human fibrosarcoma HT-1080, human chronic myeloid leukemia cell K562.
Experimental materials: PAC-1 needle crystal (prepared according to the method described in Quinn P. Peterson et al., J. Med. Chem. 2009, 52, 5721-5731), MTT solution (Amresco specification: 1 g, batch number: 2035B358), DMSO (Analytical Pure, Beijing Chemical Factory), 96-well plates (Corning), CCK-8 (Japanese Tongren Chemical Research Institute, specification: 500test, batch number: DJ706), fetal bovine serum was the product from the United States GIBCO, batch number: 608759, RPMI-1640 is the product of Hyclone, batch number: NWK0492, 0.25% Trypsin-EDTA is the product from the United States GIBCO company, batch number: 10T774768, DMSO: USA Sigma Corporation.
The cells in logarithmic growth phase were collected. The cells was digested and the cell density was adjusted into 1-5×10^5 cells/mL, 100 μL per well in 96-well culture plate. The plated was cultured in a incubator with 37 ? , 5% CO2 saturated humidity. After adherent, different concentrations of PAC-1 and ZYS-1 were added for dosing groups. 6 dosage groups were set, with at least three parallel wells set in each group. […]

HUVEC = HUVEC tubule formation assay; type: cell-based
Description: Tubule formation assay: the matrigel was thawed at 4° C. overnight, which was 1:1 diluted with serum-free ECM medium and coated onto 96-well plates. The diluted matrigel was sucked by precooled pipette gun tip, which was added into pre-cooled 96-well plates, with 50 μL per well. The matrigel was placed on ice for 5 min to make the matrigel surface level, and then the 96-well plates were put into a cell incubator at 37° C. for 1 h to cause gel coagulation. Trypsinize cells, the cells were counted and diluted with ECM medium. The cell density was adjusted to […], and the cells were seeded into coated 96-well plates with 100 μL per well. According to the MTT results, the ZYS-1 solution at different concentrations were formulated. 100 μL of the solutions were taken and added into the cell-seeded wells to make the final concentration at 2, 1, 0.5 μM. At the same time, the positive control was set as recombinant human endostatin (Endostar) and the negative control as without drugs but medium only. Each concentration of the experimental groups and the control groups all were set three replicates, which were placed and cultured in the incubator. After culturing 18 h, the culture was observed under microscope and taken the pictures to record the circumference, area of the generated tubes and the number of nodes as indicators for the formation of tubule. […]

[3] = male Wistar rats, 60 mg/Kg, n = 6
[4] = both, ICR, mouse, in vivo, 7 days
[5] = one-time intragastric administration, mice

C=CCc1cccc(/C=N/NC(=O)CN2CCN(Cc3ccccc3)CC2)c1O [ZYS-1, 1-Piperazineacetic acid, 4-(phenylmethyl)-2-[[2-hydroxy-3-(2-propen-1-yl)phenyl]methylene]]
MRT(0-∞) [1, 3]: 420.4914 ± 271.8423 h | T½ka [1, 3]: 22.9129 ± 6.3243 h | T½α [1, 3]: 209.5239 ± 129.5666 h | V/F [1, 3]: 0.0308 ± 0.0167 L | ka [1, 3]: 0.0324 ± 0.0098 h⁻¹ | ke [1, 3]: 0.0048 ± 0.0033 h⁻¹ | lagtime [1, 3]: 4.6861 ± 5.2184 h | AUC(0-inf) ([1]; male, Wistar, rat, plasma, 60 mg/kg, n = 6): 724 ± 207 µg·h/mL | AUC ([1]; male, Wistar, rat, plasma, 60 mg/kg, n = 6, read-out: AUC(0-tn)): 389 ± 136 µg·h/mL | Cmax ([1]; male, Wistar, rat, plasma, 60 mg/kg, n = 6, read-out: Cmax): 2190 ± 127 ng/mL | MRT ([1]; male, Wistar, rat, plasma, 60 mg/kg, n = 6, read-out: MRT(0-tn)): 167 ± 51.5 h | Tmax ([1]; male, Wistar, rat, plasma, 60 mg/kg, n = 6, read-out: Tmax): 65 ± 9.44 h | LD50 at 7 days (in vivo; LD50 95% confidence limit): 1090 to 2290 mg/kg | LD50 at 7 days (in vivo; LD50 dose): 1670 mg/kg | 0% mortality dose (ICR mice; [4]): 343 mg/kg | non-significant toxic reaction dose (ICR mice; [4]): 343 mg/kg | neurotoxicity, ZYS-1 compared with PAC-1 (ICR mice; both, ICR, mouse, in vivo, po, 7 days): Comparing the experimental results of acute toxicity of ZYS-1 and PAC-1, it can be seen that ZYS-1 has lower neurotoxicity. | time for most survival animals to return to normal after administration (ICR mice; [5]): ≤ 12 h | time of death after administration (mainly) (ICR mice; [5]): ≤ 6 h | antitumor efficacy (cell proliferation) compared with PAC-1 needle crystal [2]: stronger antitumor efficacy than PAC-1 needle crystal | inhibition of tubule formation compared with positive control 2.5 μg/mL Endostar (HUVEC; 2 μM ZYS-1 group): similar | effect on formation of endothelial cell tubules induced in vitro (HUVEC; 2, 1, 0.5 μM, 18 h): strong inhibitory effect
